Laboratory results as given in US20170101392A1, “PROCESSES FOR THE PREPARATION OF PESTICIDAL COMPOUNDS” (Dow AgroSciences LLC, priority 2013, published 2017).

Columns and labels:
[1] = tested on: Green Peach Aphid ("GPA") (Myzus Persicae) (MYZUPE); assay: Bioassay on green peach aphid (GPA), foliar spray on infested cabbage seedlings; assay type: in vivo; conditions: 72 h, 200 ppm spray on cabbage leaves, live aphids counted after three days, Abbott's correction, read-out: MYZUPE rating (% Control of Mortality)
Excerpt: Bioassays on Green Peach Aphid (“GPA”) (Myzus Persicae) (MYZUPE.)
GPA is the most significant aphid pest of peach trees, causing decreased growth, shriveling of leaves, and the death of various tissues. It is also hazardous because it acts as a vector for the transport of plant viruses, such as potato virus Y and potato leafroll virus to members of the nightshade/potato family Solanaceae, and various mosaic viruses to many other food crops. GPA attacks such plants as broccoli, burdock, cabbage, carrot, cauliflower, daikon, eggplant, green beans, lettuce, macadamia, papaya, peppers, sweet potatoes, tomatoes, watercress and zucchini among other plants. GPA also attacks many ornamental crops such as carnations, chrysanthemum, flowering white cabbage, poinsettia and roses. GPA has developed resistance to many pesticides.
Several molecules disclosed herein were tested against GPA using procedures described below.
Cabbage seedling grown in 3-in pots, with 2-3 small (3-5 cm) true leaves, were used as test substrate. The seedlings were infested with […] (wingless adult and nymph stages) one day prior to chemical application. Four posts with individual seedlings were used for each treatment. Test compounds (2 mg) were dissolved in 2 mL of acetone/methanol (1:1) solvent, forming stock solutions of 1000 ppm test compound. The stock solutions were diluted 5× with 0.025% Tween 20 in water to obtain the solution at 200 ppm test compound. A hand-held aspirator-type sprayer was used for spraying a solution to both sides of the cabbage leaves until runoff. Reference plants (solvent check) were sprayed with the diluent only containing 20% by volume acetone/methanol (1:1) solvent. Treated plants were held in a holding room for three days at approximately 25° C. and ambient relative humidity (RH) prior to grading. Evaluation was conducted by counting the number of live aphids per plant under a microscope. Percent Control was measured by using Abbott's correction formula (W. S. Abbott, “A Method of Computing the Effectiveness of an Insecticide” J. Econ. Entomol 18 (1925), pp. 265-267) as follows.
Corrected % Control=100*(X−Y)/X • where • X=No. of live aphids on solvent check plants and • Y=No. of live aphids on treated plants
The results are indicated in the table entitled “Table 1: GPA (MYZUPE) and sweetpotato whitefly-crawler (BEMITA) Rating Table”.

[2] = tested on: Sweetpotato Whitefly Crawler (Bemisia Tabaci) (BEMITA); assay: Bioassay on sweetpotato whitefly crawler, foliar spray on infested cotton plants; assay type: in vivo; conditions: 200 ppm spray on cotton leaves, live nymphs counted after 8-9 days, Abbott's correction, read-out: BEMITA rating (% Control of Mortality)
Excerpt: Bioassays on Sweetpotato Whitefly Crawler (Bemisia Tabaci) (BEMITA.)
The sweetpotato whitefly, Bemisia tabaci (Gennadius), has been recorded in the United States since the late 1800s. In 1986 in Florida, Bemisia tabaci became an extreme economic pest. Whiteflies usually feed on the lower surface of their host plant leaves. From the egg hatches a minute crawler stage that moves about the leaf until it inserts its microscopic, threadlike mouthparts to feed by sucking sap from the phloem. Adults and nymphs excrete honeydew (largely plant sugars from feeding on phloem), a sticky, viscous liquid in which dark sooty molds grow. Heavy infestations of adults and their progeny can cause seedling death, or reduction in vigor and yield of older plants, due simply to sap removal. The honeydew can stick cotton lint together, making it more difficult to gin and therefore reducing its value. Sooty mold grows on honeydew-covered substrates, obscuring the leaf and reducing photosynthesis, and reducing fruit quality grade. It transmitted plant-pathogenic viruses that had never affected cultivated crops and induced plant physiological disorders, such as tomato irregular ripening and squash silverleaf disorder. Whiteflies are resistant to many formerly effective insecticides.
Cotton plants grown in 3-inch pots, with 1 small (3-5 cm) true leaf, were used at test substrate. The plants were placed in a room with whitely adults. Adults were allowed to deposit eggs for 2-3 days. After a 2-3 day egg-laying period, plants were taken from the adult whitefly room. Adults were blown off leaves using a hand-held Devilbliss sprayer (23 psi). Plants with egg infestation (100-300 eggs per plant) were placed in a holding room for 5-6 days at 82° F. and 50% RH for egg hatch and crawler stage to develop. Four cotton plants were used for each treatment. Compounds (2 mg) were dissolved in 1 mL of acetone solvent, forming stock solutions of 2000 ppm. The stock solutions were diluted 10× with 0.025% Tween 20 in water to obtain a test solution at 200 ppm. A hand-held Devilbliss sprayer was used for spraying a solution to both sides of cotton leaf until runoff. Reference plants (solvent check) were sprayed with the diluent only. Treated plants were held in a holding room for 8-9 days at approximately 82° F. and 50% RH prior to grading. Evaluation was conducted by counting the number of live nymphs per plant under a microscope.

SMILES | mortality at 200 ppm [1] [%] | mortality at 200 ppm [2] [%]
O=C(CCSCCC(F)(F)F)Nc1cn(-c2cccnc2)nc1Cl [Compound 5.5, N-(3-Chloro-1-(pyridin-3-yl)-1H-pyrazol-4-yl)-3-((3,3,3-trifluoropropyl)thio)-propanamide] | 80 to 100 | 0 to 80
ClC1=NN(c2cccnc2)CC1 [Compound 5a, 3-(3-Chloro-4,5-dihydro-1H-pyrazol-1-yl)pyridine] | 0 to 80 | 0 to 80
O=C(CCCl)Nc1cn(-c2cccnc2)nc1Cl [Compound 5e, 3-Chloro-N-(3-chloro-1-(pyridine-3-yl)-1H-pyrazol-4-yl)propanamide] | 80 to 100 | 80 to 100
CCN(C(=O)CCSCCC(F)(F)F)c1cn(-c2cccnc2)nc1Cl [Compound 8.5, N-(3-Chloro-1-(pyridin-3-yl)-1H-pyrazol-4-yl)-N-ethyl-3-((3,3,3-trifluropropyl)thio)propanamide] | 80 to 100 | 80 to 100
CCN(C(=O)CC[S+]([O-])CCC(F)(F)F)c1cn(-c2cccnc2)nc1Cl (stereo not shown) [Compound 9.5, N-(3-Chloro-1-(pyridin-3-yl)-1H-pyrazol-4-yl)-N-ethyl-3-((3,3,3-trifluropropyl)sulfoxo)propanamide] | 80 to 100 | 80 to 100
